Measurements published in patent publication US8742083B1, “Panel of micrornas that silence the MCL-1 gene and sensitize cancer cells to ABT-263” (AbbVie Inc., priority 2009, dated 2014).

Legend:
Type in all cases: cell-based, human
HCT-116 cells = assay: ABT-263 sensitization, CellTiter Glo cell viability after reverse transfection of miRNA/siRNA; settings: for sensitization of HCT-116 cells to ABT-263, in words / sensitization of HCT-116 cells to ABT-263 (decrease in cell viability): 1 μM ABT-263, 48 hours; for sensitization of HCT-116 cells to ABT-263, in words: reverse transfection (miRNA 50 nM, siRNA 12.5 nM); for sensitization of HCT-116 cells to ABT-263 (decrease in cell viability): 50 nM miRNA mimic reverse transfected
Experimental: HCT-116 and CHL1 cells were purchased from the American Type Culture Collection (ATCC) and cultured in DMEM (Invitrogen Corp., Grand Island, N.Y.) supplemented with 10% fetal bovine serum (Invitrogen) and 1% penicillin/streptomycin (Invitrogen). All cell lines were maintained in a humidified chamber at 37° C. containing 5% CO2. These cells were authenticated by morphological, cell proliferation and Mycoplasma tests recommended in the ATCC Technical Bulletin no, 8 (2007). Cells were reverse transfected at 1.5−2.5×10^4 cells/[…] in 96-well tissue culture plates. siRNA or miRNA transfection was performed using Lipofectamine 2000 according to manufacturer's instructions (Invitrogen). For Mcl-1 and Bcl-xl siRNA transfections, a final concentration of 12.5 nM siRNA was used. For miRNA transfections, a final concentration of 50 nM miRNA was used. The cells were then grown in medium without antibiotic for 2 days before harvesting. For reporter experiments, 100 ng of pcDNA3-Mcl-1-3′UTR-luciferase reporter construct (21) was included in the liposome complex mix. Forty-eight hours after transfection, cells were assayed for viability using CellTiter Glo Luminescent cell viability assay according to the manufacturer's protocol (Promega). Caspase 3/7 activity was measured using the Caspase-Glo 3/7 assay (Promega). Luciferase activity was measured using the Steady-Glo reagent according to the manufacturer's protocol (Promega).
HCT-116 cells were reverse transfected as described in Example 1 above. Three replica plates were treated with 1 μM ABT-263 in media. […] HCT-116 cells were reverse transfected with sensitizing miRNAs in the presence or absence of 1 μM ABT-263 for 48 hours. Cell viability was measured with CellTiter Glo assay. MiR-29 and miR-125 were used as positive and negative controls for this assay. miRNAs that sensitize HCT-116 cells to ABT-263 by more than 25% are shown. FIG. 1B is a bar graph showing miRNAs that sensitize CHL1 cells to ABT-263. CHL1 cells were reverse transfected with sensitizing miRNAs in the presence or absence of 1 μM ABT-263 for 48 hours. Cell viability was measured with CellTiter Glo assay. Only miRNAs that sensitize HCT-116 cells to ABT-263 by more than 25% were shown. (See FIG. 6 for the complete list of 42 miRNAs). FIG. 1C is a bar graph showing modulation of Mcl-1 protein expression by sensitizing miRNAs in CHL1 cells. CHL1 cells were reverse transfected with sensitizing miRNAs. Mcl-1 expression was measured using a Luminex-based assay as described in the Methods section.
To identify miRNAs that modulate sensitivity of cells to Bcl-2 family inhibitor ABT-263, an miRNA “sensitization” screen was performed using an miRNA mimic library in the presence of ABT-263. The screen was conducted in a colon cancer cell line HCT-116. […] Synthetic miRNA mimics were reverse transfected into HCT-116 cells in the presence or absence of ABT-263 (FIG. 4). Reverse transfection of Mcl-1 siRNA and predicted Mcl-1-targeting miRNAs sensitized HCT-116 cells to 1 μM ABT-263 after 48 hours.
HCT-116 cells were reverse transfected with a library of 810 annotated miRNA mimics in triplicate in the presence of 1 μM ABT-263 (FIG. 5A). Viability of cells was determined after 2 days. […] Z-scores were used to select candidate miRNAs for subsequent experiments. Of 810 miRNA mimics, 80 increased cell death in the presence of ABT-263. Thirty-eight of these 80 miRNAs either reduced cell viability in the absence of ABT-263 (Z←1.5) or represented mimic replicates from the screen, and therefore were not subjected to further testing. The remaining 42 miRNAs were tested in a secondary screen to assess their effect in the presence or absence of ABT-263. MiR-29 and miR-125 were used as control for this screen. […] FIG. 6A identifies miRNAs that sensitize HCT-116 cells to ABT-263. HCT-116 cells were reverse transfected with sensitizing miRNAs in the presence or absence of 1 μM ABT-263 for 48 hours. Cell viability was measured with CellTiter Glo assay. […]

CHL1 cells = assay: as above; settings: no ABT-263
Experimental: (§1) HCT-116 and CHL1 cells were purchased from the American Type Culture Collection (ATCC) and cultured in DMEM (Invitrogen Corp., Grand Island, N.Y.) supplemented with 10% fetal bovine serum (Invitrogen) and 1% penicillin/streptomycin (Invitrogen). All cell lines were maintained in a humidified chamber at 37° C. containing 5% CO2. These cells were authenticated by morphological, cell proliferation and Mycoplasma tests recommended in the ATCC Technical Bulletin no, 8 (2007). Cells were reverse transfected at 1.5−2.5×10^4 cells/[…] in 96-well tissue culture plates. siRNA or miRNA transfection was performed using Lipofectamine 2000 according to manufacturer's instructions (Invitrogen). […] Caspase 3/7 activity was measured using the Caspase-Glo 3/7 assay (Promega). Luciferase activity was measured using the Steady-Glo reagent according to the manufacturer's protocol (Promega).
HCT-116 cells were reverse transfected as described in Example 1 above. […] Cell viability was measured with CellTiter Glo assay. […] Cell viability was measured with CellTiter Glo assay. […] Mcl-1 expression was measured using a Luminex-based assay as described in the Methods section.
HCT-116 cells were reverse transfected with a library of 810 annotated miRNA mimics in triplicate in the presence of 1 μM ABT-263 (FIG. 5A). Viability of cells was determined after 2 days. […] Cell viability was measured with CellTiter Glo assay. […]

Mcl-1 3′-UTR = Mcl-1 3′-UTR luciferase reporter assay in HCT-116 cells; settings: HCT-116 cells cotransfected with 100 ng reporter, 48 hours
Experimental: as §1
MiRNA could modulate sensitivity to ABT-263 through several mechanisms: by directly targeting the Mcl-1 gene 3′-UTR and repressing protein translation or by targeting molecules involved in regulating Mcl-1 expression or function. […] Measure was taken of the effect of two Mcl-1 siRNAs and the twelve strongest sensitizing miRNAs on the Mcl-1 protein levels in HCT-116 cells using the Mcl-1 quantitative assay described above. […] Mcl-1 protein expression was measured using the Mcl-1 Luminex assay. […]

Mcl-1 = Mcl-1 protein expression, Luminex-based assay, in HCT-116 cells; settings: 50 nM miRNA or Mcl-1 siRNA, 48 hours
Excerpt: The present disclosure also provides a method for determining whether an miRNA increases sensitivity of a subject to treatment with a Bcl-2 family inhibitor. The method includes a) reverse transfecting a population of cancer cells with the candidate miRNA; b) contacting the cells with an effective amount of the Bcl-2 family inhibitor, and c) determining Mcl-1 expression level in the cells, wherein a decrease in Mcl-1 expression is indicative that the miRNA increases sensitivity of the subject to treatment with the Bcl-2 family inhibitor. Mcl-1 protein expression can be measured using a liquid phase immunoassay using Luminex beads. In brief, an Mcl-1 capture antibody is conjugated to Luminex beads (bead region 9) and an Mcl-1 detection antibody conjugated to biotin. […] Cell assay buffer is added after filtering and the plate is read using a Luminex 200 station. […]
Mcl-1 protein expression was measured using a new Mcl-1 assay based on the Luminex technology. […] Cell assay buffer was added after filtering and the plate was read using a Luminex 200 station. The liquid-phase quantitative protein assay was used to measure the levels of Mcl-1 in cells. […] Using this new Mcl-1 quantitative assay, the effect of these miRNAs on the Mcl-1 protein levels in CHL1 cells was measured. […]

CC1(C)CCC(c2ccc(Cl)cc2)=C(CN2CCN(c3ccc(C(=O)NS(=O)(=O)c4ccc(N[C@H](CCN5CCOCC5)CSc5ccccc5)c(S(=O)(=O)C(F)(F)F)c4)cc3)CC2)C1 [ABT-263, N-(4-(4-((2-(4-chlorophenyl)-5,5-dimethyl-1-cyclohex-1-en-1-yl)methyl)pip-erazin-1-yl)benzoyl)-4-(((1R)-3-(morpholin-4-yl)-1-((phenylsulfanyl)methyl-)propyl)amino)-3-((trifluoromethyl)sulfonyl)benzenesulfonamide]
effect of ABT-263 alone on HCT-116 cell viability (HCT-116 cells; in the presence of the control siRNA and miRNA): ≤ 25%

Mcl-1 siRNA: Mcl-1 targeting siRNA, sequence GCATCGAACCATTAGCAGATT (listed as DNA, chemistry not given here)
CHL1 cell viability after transfection in the absence of ABT-263 (CHL1 cells): affected CHL1 cell viability
sensitization of HCT-116 cells to ABT-263, in words (HCT-116 cells): significantly sensitize
HCT-116 cell viability after transfection in the absence of ABT-263 (HCT-116 cells; no ABT-263): would not affect cell viability

miR-29: control miRNA (positive control), sequence UAGCACCAUUUGAAAUCAGUGUU (listed as RNA, chemistry not given here)
sensitization of HCT-116 cells to ABT-263, in words (HCT-116 cells): much weaker

miR-125: control miRNA (negative control), sequence UCCCUGAGACCCUUUAACCUGUGA (listed as RNA, chemistry not given here)
sensitization of HCT-116 cells to ABT-263, in words (HCT-116 cells): did not sensitize

miR-153: sensitizing human miRNA, sequence UUGCAUAGUCACAAAAGUGAUC (listed as RNA, chemistry not given here)
sensitization of HCT-116 cells to ABT-263 (decrease in cell viability) (HCT-116 cells): ~50%

miR-193a: sensitizing human miRNA, sequence AACUGGCCUACAAAGUCCCAGU (listed as RNA, chemistry not given here)
sensitization of HCT-116 cells to ABT-263 (decrease in cell viability) (HCT-116 cells): ~50%

miR-605: sensitizing human miRNA, sequence UAAAUCCCAUGGUGCCUUCUCCU (listed as RNA, chemistry not given here)
luciferase activity of Mcl-1 3′-UTR reporter (Mcl-1 3′-UTR): did not reduce the luciferase activity
Mcl-1 protein expression in HCT-116 cells (Mcl-1): affected the Mcl-1 protein expression

miR-744*: sensitizing human miRNA, sequence CUGUUGCCACUAACCUCAACCU (listed as RNA, chemistry not given here)
luciferase activity of Mcl-1 3′-UTR reporter (Mcl-1 3′-UTR): did not reduce the luciferase activity
Mcl-1 protein expression in HCT-116 cells (Mcl-1): affected the Mcl-1 protein expression
